Entries after “also recorded” stand apart in the source; their conditions may differ.
Assays:
[1] = test system: rodent (rat) model of post-traumatic stress disorder; experiment: Post-traumatic stress disorder animal model, freezing time; assay type: in vivo; conditions: PTSD rats, intraperitoneal 25 mg/kg, checked at 3-day intervals, compared to control group
Procedure: The animals were obtained from the DBL. Animals are obtained 7 days before the test start. Twenty male SD-rats aged about 7 weeks were used. Animals were maintained in conventional environmental conditions according to the 12/12 hours light-dark cycle in the colony room, with access to food and water ad libitum. The rats were acclimatized to their new housing cage over a period of 7 days. The animals were carried out for all tests. All experiments were performed in accordance with the Guide for the Care and Use of Laboratory Animals, and all efforts were made to minimize animal suffering. Weight was measured at 3-day intervals from Day 7.
This protocol involves two times exposure to foot shock without an opportunity of escape.
The weight was measured three hours before the experiment. The temperature of the laboratory was maintained at 22° C. The animals were placed in the dark laboratory space for 10 minutes to adapt. The animals were each placed in the first room. […]
The weight was measured three hours before the experiment. […]
For the freezing check, 7 days after the initial foot shock protocol, the rats were placed in the first compartment with sandpaper of the apparatus for 5 minutes (no foot shock) and the freezing behavior was recorded using shutavoid_v1803 program (Panlab, Spain) according to the manufacturer's instruction. […]

[2] = test system: APP/PS1 mice; experiment: Barrel cortex TC potency and GABA/AMPA ratio in Alzheimer's model mice; assay type: in vivo, mouse
Procedure: All electrophysiological experiments were conducted at 27 to 29° C. For electrophysiological experiments, electrodes with […] resistance were used and stimuli were applied to the ventral posteromedial nucleus (VPM) using a concentric bipolar electrode (FHC, Bowdoin, ME). The somatosensory cortex was identified by the presence of barrels under 4×magnification and differential interference contrast (DIC) optics, and by the ability to evoke short and constant latency field excitatory postsynaptic potentials (fEPSPs) by VPM stimulation. […]
For the minimal stimulation protocol (Potency), VB thalamic stimulation intensity was adjusted to find the lowest intensity that elicited a mixture of synaptic responses and failures. Failure rate was calculated as the number of failures/total number of trials. Potency was calculated as the mean EPSC peak amplitude excluding failures (see Chittajallu & Isaac, 2010, Emergence of cortical inhibition by coordinated sensory-driven plasticity at distinct synaptic loci, DOI: 10.1038/nn.2639; see Isaac et al., 1997, Silent Synapses during Development of Thalamocortical Inputs, https://doi.org/10.1016/S08966273 (00) 80267-6; and see Stevens & Wang, 1995, Facilitation and depression at single central synapses, DOI: 10.1016/08966273 (95) 90223-6). […]

## C[C@H]1CC[C@@H](C(=O)O)CN1C(=O)Cc1ccc(-c2cncnc2)cc1 [BnH12003, (3R,6S)-6-methyl-1-(2-(4-(pyrimidin-5-yl)phenyl)acetyl) piperidine-3-carboxylic acid]
[1]
  freezing time: liberated such rodents from trauma at a significantly faster rate; also recorded: significant decrease in freezing time
[2]; barrel cortex layer 4, Os pump 3 μM
  GABA/AMPA ratio (balance of excitation/inhibition): maintaining the balance of excitation/inhibition
[2]; barrel cortex layer 4, Os pump, BnH12003 3 μM, solanezumab 200 μg
  excitatory TC synaptic potential (TC potency): increased the excitatory TC synaptic potential
